Target: plasminogen activator inhibitor 1 (PAI-1) (Homo sapiens, UniProt P05121)
Experiment: Bioassay for PAI-1 inhibitors (tPA amidolysis of chromogenic substrate in presence of PAI-1)
Assay type: biochemical
Settings: inhibition of PAI-1 measured via tPA activity; 4.5 nM PAI-1, 7.5 nM tPA, 1 mM substrate H-D-Ile-Pro-Arg-pNA, TRIS buffer pH 8.4, OD 405 nm, 37° C. 60 minutes
Protocol: For the detection of the inhibitors of PAI-1, a test is run in which the activation of a specific substrate by tPA is measured in the presence of a defined amount of PAI-1 and the substance in each case to be investigated. tPA is inhibited by PAI-1. An inhibition of PAI-1 results in an increased tPA activity. The enzymatic activity of tPA is measured colorimetrically by employing a chromogenic substrate which becomes colored after amidolysis.
Reaction: The inhibition of the enzymatic activity of tPA by PAI-1 is measured by means of the amidolysis of the chromogenic substrate H-D-IIe-Pro-Arg-pNA (Chromogenix; pNA=para-nitroaniline) as the optical density (OD) at a wavelength of 405 nm.
Extracts or pure substances, for example of the spirobenzofuran lactam derivatives prepared or characterized in examples 4–10, which are present dissolved in DMSO, were diluted in a suitable manner using TRIS buffer pH 8.4.
5 μl of test substance and 5 μl of PAI-1 are preincubated at room temperature for 30 minutes. 10 μl of tPA solution and 20 μl of substrate solution are then added.
The final concentrations in the sample are 50 μM test substance, 4.5 nM PAI-1, 7.5 nM tPA and 1 mM substrate in TRIS buffer pH 8.4. Immediately after the addition of the substrate, the initial absorption is measured at 405 nm. After incubation at 37° C. for 60 minutes, the absorption is measured again.
In each case, blank samples (buffer instead of tPA), positive controls=B (buffer instead of test substances) and tPA controls=A (buffer instead of PAI-1) are co-tested.
After correction by means of the blank samples, the inhibition is determined according to the following equation: […]
The results of the assay are shown as IC50 values in Table 1.

Sequence of plasminogen activator inhibitor 1 (PAI-1) (P05121 24-402): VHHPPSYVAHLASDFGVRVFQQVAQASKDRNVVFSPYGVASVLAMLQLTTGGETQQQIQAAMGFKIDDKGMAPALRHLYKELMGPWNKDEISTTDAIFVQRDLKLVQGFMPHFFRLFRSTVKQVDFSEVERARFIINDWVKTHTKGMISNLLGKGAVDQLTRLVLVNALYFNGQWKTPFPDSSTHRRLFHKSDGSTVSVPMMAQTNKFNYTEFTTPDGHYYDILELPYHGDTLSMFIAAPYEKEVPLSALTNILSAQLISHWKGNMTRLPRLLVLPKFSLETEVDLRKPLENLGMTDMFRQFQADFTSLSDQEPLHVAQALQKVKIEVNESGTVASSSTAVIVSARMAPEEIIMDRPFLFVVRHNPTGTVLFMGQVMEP

Compound | IC50 [µM]
CC1CCC2C(C)(C)C(O)CCC2(C)C12Cc1c(O)cc3c(c1O2)CN(C(Cc1ccccc1)C(=O)O)C3=O (stereo not drawn) [Compound of the formula (II)] | 41
CCC(C)C(C(=O)O)N1Cc2c(cc(O)c3c2OC2(C3)C(C)CCC3C(C)(C)C(O)CCC32C)C1=O (stereo not drawn) [Compound of the formula (III)] | 66
CC(C)CC(C(=O)O)N1Cc2c(cc(O)c3c2OC2(C3)C(C)CCC3C(C)(C)C(O)CCC32C)C1=O (stereo not drawn) [Compound of the formula (IV)] | 35

— patent US7160917B2, “Spirobenzofuran lactams and their derivatives, processes for their preparation and use thereof” (Sanofi-Aventis Deutschland GmbH, priority 2002, dated 2007)
